Assay results reported in ChEMBL document CHEMBL4622833, “Bifunctional small molecule-oligonucleotide hybrid as microRNA inhibitor” (Bioorg Med Chem, 2020).
The source made the active and inactive calls. The rule behind the calls is not given here. Numbered stars: 1 amine (or outer) side, 2 acyl side, 3 side chain; on linkers, the order of the positions; unused ones are H or OH. Square brackets hold non-standard residues; d marks the D form. Peptide text beside a SMILES is read from it. * marks the point of attachment. X6 = O=C1Cc2ccc(OCc3cn(N([C@@H](CS)C(=O)[*:2])[*:1])nn3)cc2C(=O)N1O; X3 = O=C1Cc2ccc(OCc3cn(N(CC(=O)[*:2])[*:1])nn3)cc2C(=O)N1O; X4 = C[C@@H](O)[C@@H](C(=O)[*:2])N(n1cc(CN[*:3])nn1)[*:1]; X7 = O=C([C@H](CS)N(n1cc(CCCC(=O)[*:3])nn1)[*:1])[*:2]; X1 = O=C([C@H](CS)N(n1cc(CN[*:3])nn1)[*:1])[*:2]; X5 = C[C@@H](C(=O)[*:2])N(n1cc(CN[*:3])nn1)[*:1]; X8 = O=C(NCCOCCOCCN*)c1ccc2c(c1)C(=O)N(O)C2=O; X2 = O=C1c2ccc(C(=O)*)cc2C(=O)N1O

Key:
Assay type in all cases: nucleic-acid assay
microRNA 21 [1] = assay: Inhibition of Dicer mediated [32P] pre-miRNA-21 (unknown origin) maturation assessed as cleavage of pre-miRNA at 1 to 100 uM after 2.5 hrs by denaturating polyacrylamide gel electrophoresis
microRNA 21 [2] = assay: Inhibition of Dicer mediated [32P] pre-miRNA-21 (unknown origin) maturation assessed as cleavage of pre-miRNA at 50 uM after 2.5 hrs by denaturating polyacrylamide gel electrophoresis
microRNA 21 [3] = assay: Binding affinity to [32P]pre-miRNA-21(unknown origin) assessed as reduction in mobility by electrophoretic mobility shift assay
microRNA 21 [4] = assay: Inhibition of Dicer mediated [32P] pre-miRNA-21 (unknown origin) maturation assessed as cleavage of pre-miRNA at 10 uM after 2.5 hrs by denaturating polyacrylamide gel electrophoresis
microRNA 21 [5] = assay: Inhibition of Dicer mediated [32P] pre-miRNA-21 (unknown origin) maturation assessed as cleavage of pre-miRNA after 2.5 hrs by denaturating polyacrylamide gel electrophoresis
microRNA 21 [6] = assay: Inhibition of Dicer mediated [32P] pre-miRNA-21 (unknown origin) maturation assessed as cleavage of pre-miRNA at 1000 uM after 2.5 hrs by denaturating polyacrylamide gel electrophoresis
Pre-miRNA-29b = assay: Inhibition of Dicer mediated [32P] pre-miRNA-29b-1 (unknown origin) maturation assessed as cleavage of pre-miRNA at 1 mM after 2.5 hrs by denaturating polyacrylamide gel electrophoresis

| inhibition (microRNA 21 [2]) | IC50 (microRNA 21 [5]) [µM] | SMILES | other results |
| --- | --- | --- | --- |
| – | – | C[C@H](NC(=O)[C@H](CS)NC(=O)[C@H](C)NC(=O)[C@H](C)NC(=O)[C@H](CS)NC(=O)[C@@H](NC(=O)[C@@H](NC(=O)[C@H](C)NC(=O)CNC(=O)[C@H](C)NC(=O)CNC(=O)[C@@H](NC(=O)[C@H](C)NC(=O)[C@H](CS)Nn1cc(CCCC(=O)NCCOCCOCCNC(=O)c2ccc3c(c2)C(=O)N(O)C3=O)nn1)[C@@H](C)O)[C@@H](C)O)[C@@H](C)O)C(=O)O (H-[X7](X8)ATGAGATTCAACA-OH) | inhibition (microRNA 21 [1]): inactive |
| Active | – | C[C@H](NC(=O)[C@H](CS)NC(=O)[C@H](C)NC(=O)[C@H](C)NC(=O)[C@H](CS)NC(=O)[C@@H](NC(=O)[C@@H](NC(=O)[C@H](C)NC(=O)CNC(=O)[C@H](C)Nn1cc(CNC(=O)c2ccc3c(c2)C(=O)N(O)C3=O)nn1)[C@@H](C)O)[C@@H](C)O)C(=O)O (H-[X5](X2)GATTCAACA-OH) | – |
| Active | 4.3 | C[C@H](NC(=O)[C@H](CS)NC(=O)[C@H](C)NC(=O)[C@H](C)NC(=O)[C@H](CS)NC(=O)[C@@H](NC(=O)[C@@H](NC(=O)[C@H](C)NC(=O)CNC(=O)[C@H](C)NC(=O)CNC(=O)[C@@H](NC(=O)[C@H](C)NC(=O)[C@H](CS)Nn1cc(CNC(=O)c2ccc3c(c2)C(=O)N(O)C3=O)nn1)[C@@H](C)O)[C@@H](C)O)[C@@H](C)O)C(=O)O (H-[X1](X2)ATGAGATTCAACA-OH) | Activity (microRNA 21 [3]): Active; inhibition (microRNA 21 [4]): Active |
| – | 0.5 | C[C@H](NC(=O)[C@H](CS)NC(=O)[C@H](C)NC(=O)[C@H](C)NC(=O)[C@H](CS)NC(=O)[C@@H](NC(=O)[C@@H](NC(=O)[C@H](C)NC(=O)CNC(=O)[C@H](C)NC(=O)CNn1cc(COc2ccc3c(c2)C(=O)N(O)C(=O)C3)nn1)[C@@H](C)O)[C@@H](C)O)C(=O)O (H-[X3]AGATTCAACA-OH) | inhibition (microRNA 21 [5]): Dose-dependent effect |
| Active | – | C[C@H](NC(=O)[C@H](CS)NC(=O)[C@H](C)NC(=O)[C@H](C)NC(=O)[C@H](CS)NC(=O)[C@@H](NC(=O)[C@@H](NC(=O)[C@H](C)NC(=O)CNC(=O)[C@H](C)NC(=O)CNC(=O)[C@@H](Nn1cc(CNC(=O)c2ccc3c(c2)C(=O)N(O)C3=O)nn1)[C@@H](C)O)[C@@H](C)O)[C@@H](C)O)C(=O)O (H-[X4](X2)GAGATTCAACA-OH) | – |
| – | 3.3 | C[C@H](NC(=O)[C@H](CS)NC(=O)[C@H](C)NC(=O)[C@H](C)NC(=O)[C@H](CS)NC(=O)[C@@H](NC(=O)[C@@H](NC(=O)[C@H](C)NC(=O)CNC(=O)[C@H](C)NC(=O)CNC(=O)[C@@H](NC(=O)[C@H](C)NC(=O)[C@H](CS)Nn1cc(COc2ccc3c(c2)C(=O)N(O)C(=O)C3)nn1)[C@@H](C)O)[C@@H](C)O)[C@@H](C)O)C(=O)O (H-[X6]ATGAGATTCAACA-OH) | – |
| – | – | C#CCNC(=O)c1ccc2c(c1)C(=O)N(O)C2=O | inhibition (microRNA 21 [6]): inactive; inhibition (Pre-miRNA-29b): inactive |
